{
  "source": "ChEMBL document CHEMBL1201862",
  "about": "“PubChem BioAssay data set” (2004)",
  "test_in_all_cases": "NCI tumour cell line growth inhibition, 48 h",
  "key": {"SNB-19": {"system": "SNB-19"}, "COLO 205": {"system": "COLO 205"}, "SN12C": {"system": "SN12C"}, "UACC-257": {"system": "UACC-257"}, "NCI-H522": {"system": "NCI-H522"}, "Hs-578T": {"system": "Hs-578T"}, "RXF 393": {"system": "RXF 393"}, "CCRF-CEM": {"system": "CCRF-CEM"}, "SF-295": {"system": "SF-295"}, "RPMI-8226": {"system": "RPMI-8226"}, "SF-268": {"system": "SF-268"}, "SK-MEL-5": {"system": "SK-MEL-5"}, "MDA-N": {"system": "MDA-N"}, "OVCAR-4": {"system": "OVCAR-4"}, "HCT-116": {"system": "HCT-116"}, "HL-60": {"system": "HL-60"}, "SF-539": {"system": "SF-539"}, "NCI-H226": {"system": "NCI-H226"}, "KM12": {"system": "KM12"}, "A498": {"system": "A498"}, "MDA-MB-435": {"system": "MDA-MB-435"}, "SK-MEL-28": {"system": "SK-MEL-28"}, "UO-31": {"system": "UO-31"}, "K562": {"system": "K562"}, "EKVX": {"system": "EKVX"}, "NCI/ADR-RES": {"system": "NCI/ADR-RES"}, "OVCAR-3": {"system": "OVCAR-3"}, "786-0": {"system": "786-0"}, "TK-10": {"system": "TK-10"}, "HCC 2998": {"system": "HCC 2998"}, "HT-29": {"system": "HT-29"}, "OVCAR-5": {"system": "OVCAR-5"}, "MCF7": {"system": "MCF7"}, "HOP-62": {"system": "HOP-62"}, "LOX IMVI": {"system": "LOX IMVI"}, "HCT-15": {"system": "HCT-15"}, "SK-OV-3": {"system": "SK-OV-3"}, "SK-MEL-2": {"system": "SK-MEL-2"}, "SW-620": {"system": "SW-620"}, "PC-3": {"system": "PC-3"}, "IGROV-1": {"system": "IGROV-1"}, "U-251": {"system": "U-251"}, "T47D": {"system": "T47D"}, "DU-145": {"system": "DU-145"}, "MDA-MB-231": {"system": "MDA-MB-231"}, "UACC-62": {"system": "UACC-62"}, "NCI-H23": {"system": "NCI-H23"}, "NCI-H460": {"system": "NCI-H460"}, "MOLT-4": {"system": "MOLT-4"}, "OVCAR-8": {"system": "OVCAR-8"}, "M14": {"system": "M14"}, "ACHN": {"system": "ACHN"}, "A549": {"system": "A549"}, "SR": {"system": "SR"}, "SNB-75": {"system": "SNB-75"}, "Malme-3M": {"system": "Malme-3M"}, "HOP-92": {"system": "HOP-92"}},
  "note": "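1) Cells in 96-well plates. 2) Compound, 48 h, 5 concentrations. 3) Linear interpolation between surrounding doses. 4) Unreached endpoint = highest concentration. Abbreviation: GI50, concentration required for 50% inhibition of growth.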 Calls of active or inactive are those of the source. Cut-off read from the data, not from the text of the source: active = GI50 up to about 1.1 µM and inactive = higher.",
  "data": [
    {"smiles": "CC(=O)N1CC(C)(C)c2c1cc(C)c(O)c2C", "values": [
      {"measurement": "GI50", "setting": "SNB-19", "value": "> 100 µM (inactive)"},
      {"measurement": "GI50", "setting": "COLO 205", "value": "> 100 µM (inactive)"},
      {"measurement": "GI50", "setting": "SN12C", "value": "> 100 µM (inactive)"},
      {"measurement": "GI50", "setting": "UACC-257", "value": "> 100 µM (inactive)"},
      {"measurement": "GI50", "setting": "NCI-H522", "value": "> 100 µM (inactive)"},
      {"measurement": "GI50", "setting": "Hs-578T", "value": "> 100 µM (inactive)"},
      {"measurement": "GI50", "setting": "RXF 393", "value": "> 100 µM (inactive)"},
      {"measurement": "GI50", "setting": "CCRF-CEM", "value": "> 100 µM (inactive)"},
      {"measurement": "GI50", "setting": "SF-295", "value": "> 100 µM (inactive)"},
      {"measurement": "GI50", "setting": "RPMI-8226", "value": "> 100 µM (inactive)"},
      {"measurement": "GI50", "setting": "SF-268", "value": "> 100 µM (inactive)"},
      {"measurement": "GI50", "setting": "SK-MEL-5", "value": "> 100 µM (inactive)"},
      {"measurement": "GI50", "setting": "MDA-N", "value": "> 100 µM (inactive)"},
      {"measurement": "GI50", "setting": "OVCAR-4", "value": "> 100 µM (inactive)"},
      {"measurement": "GI50", "setting": "HCT-116", "value": "> 100 µM (inactive)"},
      {"measurement": "GI50", "setting": "HL-60", "value": "86.9 µM (inactive)"},
      {"measurement": "GI50", "setting": "SF-539", "value": "> 100 µM (inactive)"},
      {"measurement": "GI50", "setting": "NCI-H226", "value": "> 100 µM (inactive)"},
      {"measurement": "GI50", "setting": "KM12", "value": "> 100 µM (inactive)"},
      {"measurement": "GI50", "setting": "A498", "value": "> 100 µM (inactive)"},
      {"measurement": "GI50", "setting": "MDA-MB-435", "value": "> 100 µM (inactive)"},
      {"measurement": "GI50", "setting": "SK-MEL-28", "value": "> 100 µM (inactive)"},
      {"measurement": "GI50", "setting": "UO-31", "value": "> 100 µM (inactive)"},
      {"measurement": "GI50", "setting": "K562", "value": "> 100 µM (inactive)"},
      {"measurement": "GI50", "setting": "EKVX", "value": "> 100 µM (inactive)"},
      {"measurement": "GI50", "setting": "NCI/ADR-RES", "value": "> 100 µM (inactive)"},
      {"measurement": "GI50", "setting": "OVCAR-3", "value": "> 100 µM (inactive)"},
      {"measurement": "GI50", "setting": "786-0", "value": "> 100 µM (inactive)"},
      {"measurement": "GI50", "setting": "TK-10", "value": "> 100 µM (inactive)"},
      {"measurement": "GI50", "setting": "HCC 2998", "value": "> 100 µM (inactive)"},
      {"measurement": "GI50", "setting": "HT-29", "value": "> 100 µM (inactive)"},
      {"measurement": "GI50", "setting": "OVCAR-5", "value": "> 100 µM (inactive)"},
      {"measurement": "GI50", "setting": "MCF7", "value": "> 100 µM (inactive)"},
      {"measurement": "GI50", "setting": "HOP-62", "value": "> 100 µM (inactive)"},
      {"measurement": "GI50", "setting": "LOX IMVI", "value": "> 100 µM (inactive)"},
      {"measurement": "GI50", "setting": "HCT-15", "value": "> 100", "unit": "µM"},
      {"measurement": "GI50", "setting": "SK-OV-3", "value": "> 100 µM (inactive)"},
      {"measurement": "GI50", "setting": "SK-MEL-2", "value": "> 100 µM (inactive)"},
      {"measurement": "GI50", "setting": "SW-620", "value": "> 100 µM (inactive)"},
      {"measurement": "GI50", "setting": "PC-3", "value": "> 100 µM (inactive)"},
      {"measurement": "GI50", "setting": "IGROV-1", "value": "> 100 µM (inactive)"},
      {"measurement": "GI50", "setting": "U-251", "value": "> 100 µM (inactive)"},
      {"measurement": "GI50", "setting": "T47D", "value": "> 100 µM (inactive)"},
      {"measurement": "GI50", "setting": "DU-145", "value": "> 100 µM (inactive)"},
      {"measurement": "GI50", "setting": "MDA-MB-231", "value": "> 100 µM (inactive)"},
      {"measurement": "GI50", "setting": "UACC-62", "value": "> 100 µM (inactive)"},
      {"measurement": "GI50", "setting": "NCI-H23", "value": "> 100 µM (inactive)"},
      {"measurement": "GI50", "setting": "NCI-H460", "value": "> 100 µM (inactive)"},
      {"measurement": "GI50", "setting": "MOLT-4", "value": "> 100 µM (inactive)"},
      {"measurement": "GI50", "setting": "OVCAR-8", "value": "> 100 µM (inactive)"},
      {"measurement": "GI50", "setting": "M14", "value": "> 100 µM (inactive)"},
      {"measurement": "GI50", "setting": "ACHN", "value": "> 100 µM (inactive)"},
      {"measurement": "GI50", "setting": "A549", "value": "> 100 µM (inactive)"}
    ]},
    {"smiles": "CC1(C)OC2C(COC(c3ccccc3)(c3ccccc3)c3ccccc3)OC(c3c[nH]c4c(N)ncnc34)C2O1", "note": "(stereo unspecified)", "values": [
      {"measurement": "GI50", "setting": "COLO 205", "value": "10.7 µM (inactive)"},
      {"measurement": "GI50", "setting": "SN12C", "value": "3.92 µM (inactive)"},
      {"measurement": "GI50", "setting": "UACC-257", "value": "4.68 µM (inactive)"},
      {"measurement": "GI50", "setting": "NCI-H522", "value": "4.53 µM (inactive)"},
      {"measurement": "GI50", "setting": "Hs-578T", "value": "5.73 µM (inactive)"},
      {"measurement": "GI50", "setting": "SR", "value": "4.06 µM (inactive)"},
      {"measurement": "GI50", "setting": "SF-295", "value": "3 µM (inactive)"},
      {"measurement": "GI50", "setting": "SF-268", "value": "5.82 µM (inactive)"},
      {"measurement": "GI50", "setting": "SK-MEL-5", "value": "1.58 µM (inactive)"},
      {"measurement": "GI50", "setting": "MDA-N", "value": "3.16 µM (inactive)"},
      {"measurement": "GI50", "setting": "OVCAR-4", "value": "7.78 µM (inactive)"},
      {"measurement": "GI50", "setting": "HCT-116", "value": "4.67 µM (inactive)"},
      {"measurement": "GI50", "setting": "SNB-75", "value": "7.48 µM (inactive)"},
      {"measurement": "GI50", "setting": "EKVX", "value": "8.61 µM (inactive)"},
      {"measurement": "GI50", "setting": "NCI/ADR-RES", "value": "9.48 µM (inactive)"},
      {"measurement": "GI50", "setting": "OVCAR-3", "value": "3.13 µM (inactive)"},
      {"measurement": "GI50", "setting": "786-0", "value": "1.87 µM (inactive)"},
      {"measurement": "GI50", "setting": "HT-29", "value": "2.56 µM (inactive)"},
      {"measurement": "GI50", "setting": "Malme-3M", "value": "4.92 µM (inactive)"},
      {"measurement": "GI50", "setting": "HOP-62", "value": "4.86 µM (inactive)"},
      {"measurement": "GI50", "setting": "LOX IMVI", "value": "1.6 µM (inactive)"},
      {"measurement": "GI50", "setting": "HCT-15", "value": 4.06, "unit": "µM"},
      {"measurement": "GI50", "setting": "SK-OV-3", "value": "4.86 µM (inactive)"},
      {"measurement": "GI50", "setting": "SK-MEL-2", "value": "4.89 µM (inactive)"},
      {"measurement": "GI50", "setting": "SW-620", "value": "3.25 µM (inactive)"},
      {"measurement": "GI50", "setting": "PC-3", "value": "1.86 µM (inactive)"},
      {"measurement": "GI50", "setting": "IGROV-1", "value": "4.49 µM (inactive)"},
      {"measurement": "GI50", "setting": "T47D", "value": "3.92 µM (inactive)"},
      {"measurement": "GI50", "setting": "DU-145", "value": "5.6 µM (inactive)"},
      {"measurement": "GI50", "setting": "MDA-MB-231", "value": "13.1 µM (inactive)"},
      {"measurement": "GI50", "setting": "UACC-62", "value": "1.31 µM (inactive)"},
      {"measurement": "GI50", "setting": "HOP-92", "value": "5.62 µM (inactive)"},
      {"measurement": "GI50", "setting": "NCI-H460", "value": "3.33 µM (inactive)"},
      {"measurement": "GI50", "setting": "MOLT-4", "value": "1.89 µM (inactive)"},
      {"measurement": "GI50", "setting": "OVCAR-8", "value": "5.77 µM (inactive)"},
      {"measurement": "GI50", "setting": "M14", "value": "2.76 µM (inactive)"},
      {"measurement": "GI50", "setting": "ACHN", "value": "2.67 µM (inactive)"},
      {"measurement": "GI50", "setting": "A549", "value": "3.18 µM (inactive)"}
    ]}
  ]
}
